Reference: PubChem BioAssay (NCI)
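48-hour exposure; five concentrations; linearly interpolated endpoints. The concentration for full growth arrest is given as TGI.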

Tests used:
Assay in all cases: NCI anticancer screen, dose series, 48 h
[1] = tested on: COLO 205 colon
[2] = tested on: UACC-257 melanoma
[3] = tested on: MALME-3M melanoma
[4] = tested on: OVCAR-5 ovarian
[5] = tested on: T-47D breast
[6] = tested on: HOP-62 NSCLC
[7] = tested on: SF-295 CNS
[8] = tested on: NCI/ADR-RES ovarian
[9] = tested on: SNB-75 CNS
[10] = tested on: BT-549 breast
[11] = tested on: TK-10 renal
[12] = tested on: IGROV1 ovarian
[13] = tested on: HOP-92 NSCLC
[14] = tested on: HCT-15 colon
[15] = tested on: OVCAR-8 ovarian
[16] = tested on: SN12C renal
[17] = tested on: SK-OV-3 ovarian
[18] = tested on: U251 CNS
[19] = tested on: A549 NSCLC
[20] = tested on: HS 578T breast

SMILES	TGI [1]	TGI [2]	TGI [3]	TGI [4]	TGI [5]	TGI [6]	TGI [7]	TGI [8]	TGI [9]	TGI [10]	TGI [11]	TGI [12]	TGI [13]	TGI [14]	TGI [15]	TGI [16]	TGI [17]	TGI [18]	TGI [19]	TGI [20]
CCCCC(=O)Nc1ccc2cc(C(=O)OC)c(ON3C(=O)c4ccccc4C3=O)nc2n1	> 100 µM	> 100 µM	38.5 µM	98.3 µM	> 100 µM	37.6 µM	> 100 µM	> 100 µM	88.2 µM	> 100 µM	46.2 µM	41 µM	65.3 µM	> 100 µM	58.4 µM	> 100 µM	> 100 µM	> 100 µM	> 100 µM	
CC1(C)CC(=O)C2=C(C1)c1c(ccc3ccccc13)NC2c1cn(Cc2ccc(Cl)cc2)c2ccccc12 (stereo not given)	> 100 µM	> 100 µM		> 100 µM	> 100 µM	> 100 µM	> 100 µM	> 100 µM	> 100 µM	> 100 µM	> 100 µM	> 100 µM	> 100 µM	> 100 µM	> 100 µM	> 100 µM	> 100 µM	> 100 µM	> 100 µM	> 100 µM
CC1(C)CC[C@]2(C)CC=C3[C@]4(C)CC[C@H]5C(C)(C)C(=O)CC[C@]5(C)[C@H]4CC[C@@]3(C)[C@H]2C1	> 100 µM	> 100 µM	> 100 µM	> 100 µM	> 100 µM	> 100 µM	> 100 µM	> 100 µM			> 100 µM	> 100 µM	> 100 µM	> 100 µM	> 100 µM	> 100 µM	> 100 µM	> 100 µM	> 100 µM	> 100 µM
O=C(/C=C/c1ccc(Cl)cc1)Oc1ccc(/C=C2\CCCCC2=O)cc1	> 100 µM	> 100 µM	> 100 µM	> 100 µM	> 100 µM	> 100 µM	> 100 µM		> 100 µM		> 100 µM	> 100 µM	> 100 µM	> 100 µM	> 100 µM	> 100 µM		> 100 µM	> 100 µM	> 100 µM
CCCCn1c(C)c(C(=O)OCC)s/c1=N/Nc1nc2ccccc2nc1-c1ccccc1	> 100 µM	> 100 µM		> 100 µM	> 100 µM	83.5 µM	> 100 µM	> 100 µM	> 100 µM	> 100 µM	> 100 µM	> 100 µM	> 100 µM	> 100 µM	> 100 µM	> 100 µM	> 100 µM	> 100 µM	> 100 µM	60.3 µM
O=c1[nH]c(=O)n(C2CC(O)C(CO)O2)cc1OCCCc1ccccc1 (stereo not given)	> 100 µM	> 100 µM	> 100 µM	> 100 µM	> 100 µM	> 100 µM	> 100 µM	> 100 µM	> 100 µM	> 100 µM	> 100 µM	> 100 µM		> 100 µM	> 100 µM	> 100 µM	> 100 µM	> 100 µM	> 100 µM	> 100 µM
CCCCCNc1nonc1N	> 100 µM	> 100 µM	> 100 µM	> 100 µM	> 100 µM	> 100 µM	> 100 µM	> 100 µM	> 100 µM		> 100 µM	> 100 µM	> 100 µM	> 100 µM	> 100 µM	> 100 µM	> 100 µM	> 100 µM	> 100 µM	> 100 µM
COc1cc(CCCOC(=O)/C=C/c2ccc(O)c(O)c2)cc(O)c1O	> 100 µM	> 100 µM	> 100 µM	> 100 µM	74.6 µM	> 100 µM	> 100 µM		> 100 µM	> 100 µM	> 100 µM	> 100 µM		> 100 µM	> 100 µM	> 100 µM	> 100 µM	> 100 µM	> 100 µM	> 100 µM
O=C1CCC[C@]2(CCC[C@@H](O)C2)N1	> 100 µM	> 100 µM	> 100 µM	> 100 µM	> 100 µM	> 100 µM	> 100 µM	> 100 µM	> 100 µM	> 100 µM	> 100 µM	> 100 µM		> 100 µM	> 100 µM	> 100 µM	> 100 µM		> 100 µM	> 100 µM
CC1(C)N=C(C(N)=O)c2ncn(-c3ccccc3)c2N1	> 100 µM	> 100 µM	> 100 µM	> 100 µM	> 100 µM	> 100 µM	> 100 µM	> 100 µM	> 100 µM		> 100 µM	> 100 µM		> 100 µM	> 100 µM	> 100 µM	> 100 µM	> 100 µM	> 100 µM	> 100 µM
Cc1cccc2c1Oc1cc(Cl)ccc1C2NC(=O)CCN1CCN(CCO)CC1 (stereo not given)	36.6 µM	33.7 µM		40.9 µM	34.2 µM	32.9 µM	33 µM	30.9 µM	25.1 µM	37.5 µM		> 100 µM	22.8 µM	34.1 µM	26.3 µM	28.7 µM	> 100 µM	29.3 µM	23.7 µM	
CN1CN(c2ccccc2)C2(CCN(CCCSc3ccccc3NC(=O)/C=C/c3ccccc3)CC2)C1=O	4.53 µM	3.34 µM	4.77 µM	> 60.5 µM	> 59.7 µM	5.8 µM	7.95 µM	22.4 µM	22.8 µM	12 µM	34.4 µM	6.61 µM		26.5 µM	32.6 µM	15.1 µM	> 42.3 µM	22.5 µM	> 87.3 µM	15 µM
